{
  "source": "patent US7208517B1",
  "about": "“Endothelin antagonists” (Abbott Labortories, priority 1994, dated 2007)",
  "key": {"[1]": {"system": "male subjects with hormone refractory prostate cancer", "assay": "Prostate specific antigen (PSA) level assay in serum of treated subjects", "format": "in vivo, human", "settings": "subjects treated with placebo or 2.5 mg or 10 mg", "experimental": "Studies were performed on male subjects with asymptomatic hormone refractory prostate cancer with rising PSA levels and on male subjects with symptomatic hormone refractory prostate cancer with rising PSA levels and pain. Subjects in the phase II studies had castrate levels of testosterone, either due to pharmacologic intervention, via leuprolide (Lupron®) or goserelin (Zoladex®), or via surgical castration. Subjects received ABT-627 or placebo. The following tests were conducted:\nABT-627 was formulated in 2.5 and 10 mg doses. An oral liquid formulation of ABT-627 was also prepared as follows: 1 mg/ml ABT-627, 50% glycerin, 14% alcohol, and water. Matching placebos were also provided.\nA number of recognized or putative biochemical markers of disease progression have been used to monitor treatment of individuals with prostate cancer. […]\nThe effect of ABT-627 administeration on prostate specific antigen (PSA) levels in human subject serum samples was determined using the procedure described in the Chiron Diagnostics ACS: Centaur PSA2 Assay. […]\nBriefly, a subject population was treated with a placebo or 2.5 mg or 10 mg of ABT-627. […] A direct relationship exists between the amount of PSA present in the patient sample and the RLU's (relative light units) detected."}, "[2]": {"system": "male subjects with hormone refractory prostate cancer", "assay": "Visual Analog Scale (VAS) pain assessment of treated subjects", "format": "in vivo, human", "settings": "independent of the effects of morphine", "experimental": "Studies were performed on male subjects with asymptomatic hormone refractory prostate cancer with rising PSA levels and on male subjects with symptomatic hormone refractory prostate cancer with rising PSA levels and pain. Subjects in the phase II studies had castrate levels of testosterone, either due to pharmacologic intervention, via leuprolide (Lupron®) or goserelin (Zoladex®), or via surgical castration. Subjects received ABT-627 or placebo. The following tests were conducted: ABT-627 was formulated in 2.5 and 10 mg doses. An oral liquid formulation of ABT-627 was also prepared as follows: 1 mg/ml ABT-627, 50% glycerin, 14% alcohol, and water. Matching placebos were also provided. […] The log also contained a table on which was recorded all daily pain medication consumed by the patient. […] Clinical personnel who received the logs measured the score by measuring the distance (in mm) from the “no pain” end mark to the point where the subject's line crossed the VAS line. […] The weekly VAS scores were calculated excluding the lowest and highest score for each week and averaging the remaining five scores. […] The duration of the response, defined as the time from baseline to the last weekly assessment for which the responder definition was satisfied, was analyzed using the Kaplan-Meier methodology and logrank test."}},
  "data": [
    {"compound": "CCCCCN(CCCC)C(=O)CN1C[C@H](c2ccc3c(c2)OCO3)[C@@H](C(=O)O)[C@@H]1c1ccc(OC)cc1", "note": "[ABT-627]", "values": [
      {"measurement": "rate of increase of PSA in serum (AUC, FIG. 2)", "setting": "[1]", "result": "rate of increase of PSA in the serum samples decreases"},
      {"measurement": "VAS scores, pain (AUC, FIG. 3)", "setting": "[2]", "result": "VAS scores showed a decrease in pain"}
    ]}
  ]
}
